Experimental data taken from US6310093A (priority 1998, dated 2001).
Changes are numbered by the printed parent chain. Where “and” joins values, the source holds several entries; their conditions need not be identical. Identical values can stand only once. Entries after “also recorded” stand apart in the source; their conditions may differ. Like-named read-outs stand apart in the source and are kept apart here.

Columns and labels:
[1] = test system: pure neuronal cultures (cortical neurons) exposed to glutamine
[2] = biological target: T1, glutaminase (brain membranes) (Rattus norvegicus, UniProt P13264); experiment: biochemical; design: Glutaminase Activity: unit not given here; details: for Glutaminase Activity: brain membranes
T1 construct: Membranes are prepared by homogenization of brain tissue in 330 mM sucrose; from tissue; host or cells: rat brain, crude membranes (17000 G pellet)
T1 sequence (P13264 73-674 limits assumed): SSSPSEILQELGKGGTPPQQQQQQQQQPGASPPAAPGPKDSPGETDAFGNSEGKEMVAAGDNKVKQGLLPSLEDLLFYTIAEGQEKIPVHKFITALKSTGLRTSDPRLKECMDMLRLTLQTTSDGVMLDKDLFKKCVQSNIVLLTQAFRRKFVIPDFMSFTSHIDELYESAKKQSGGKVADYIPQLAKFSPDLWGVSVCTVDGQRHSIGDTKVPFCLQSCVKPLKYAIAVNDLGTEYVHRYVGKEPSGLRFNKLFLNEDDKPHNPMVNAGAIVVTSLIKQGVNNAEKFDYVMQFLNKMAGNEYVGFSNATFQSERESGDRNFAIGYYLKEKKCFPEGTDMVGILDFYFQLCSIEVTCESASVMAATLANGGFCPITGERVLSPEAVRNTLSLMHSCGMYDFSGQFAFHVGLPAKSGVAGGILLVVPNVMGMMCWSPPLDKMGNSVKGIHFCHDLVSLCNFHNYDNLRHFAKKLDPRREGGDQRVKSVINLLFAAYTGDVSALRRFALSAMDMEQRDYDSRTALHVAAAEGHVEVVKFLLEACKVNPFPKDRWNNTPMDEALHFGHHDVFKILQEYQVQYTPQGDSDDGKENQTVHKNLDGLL

[3] = test system: neuronal cells in culture
glutaminase = details: cited from earlier work
[4] = biological target: T2, glutaminase in damaged neurons (Mus musculus, UniProt D3Z7P3)
T2 sequence (D3Z7P3 73-674 limits assumed): T1 sequence (P13264 73-674 limits assumed) with V64I, E590G

[5] = Kaneko et al. 1992; cited from earlier work
[6] = test system: hippocampal slices (field potential)
[7] = biological target: T3, glutaminase in live (intact) neurons (Mus musculus, UniProt D3Z7P3); assay type: cell-based, mouse (Swiss Webster)
T3 sequence (D3Z7P3 55-674): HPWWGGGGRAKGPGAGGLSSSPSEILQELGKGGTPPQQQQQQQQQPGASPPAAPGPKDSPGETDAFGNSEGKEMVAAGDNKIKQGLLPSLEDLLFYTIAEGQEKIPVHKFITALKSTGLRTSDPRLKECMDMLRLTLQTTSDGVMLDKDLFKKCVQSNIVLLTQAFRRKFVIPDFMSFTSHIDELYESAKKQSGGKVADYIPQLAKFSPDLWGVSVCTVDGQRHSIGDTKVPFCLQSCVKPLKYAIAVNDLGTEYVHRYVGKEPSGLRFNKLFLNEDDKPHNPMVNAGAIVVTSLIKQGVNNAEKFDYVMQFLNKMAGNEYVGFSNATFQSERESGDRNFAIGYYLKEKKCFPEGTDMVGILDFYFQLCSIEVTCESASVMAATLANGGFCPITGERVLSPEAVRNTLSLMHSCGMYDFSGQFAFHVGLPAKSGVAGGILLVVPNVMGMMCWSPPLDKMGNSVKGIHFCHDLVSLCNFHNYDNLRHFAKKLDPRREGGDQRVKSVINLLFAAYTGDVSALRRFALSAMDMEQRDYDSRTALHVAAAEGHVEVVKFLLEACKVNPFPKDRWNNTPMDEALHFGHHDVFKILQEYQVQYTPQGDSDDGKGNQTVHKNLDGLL

[8] = Huber; cited from earlier work
[9] = test system: mixed neuronal-astrocyte cultures
[10] = test system: mixed neuronal-astrocyte cultures; experiment: cells; details: Mus musculus, 24 h, read-out: % cell death (LDH)
[11] = test system: neuronal cells in culture; experiment: cells; details: Mus musculus, read-out: LDH release by NMDA exposure relative to freeze-thaw
[12] = test system: glial cultures (astrocytes); assay type: cell-based, mouse (Swiss Webster); details: at much higher concentrations than inhibition of exposed glutaminase
[13] = test system: ischemic penumbra (dialysate glutamate); experiment: In vivo microdialysis of ischemic penumbra after MCAO; design: species or system rat; details: subsequent perfusion of phosphate; ±400%
Protocol: In further microdialysis experiments, exogenous glutamine was added to the ischemic penumbra via the probe, and dialysis glutamate was measured, as described in Example 7. When 10 mM glutamine plus 20 mM sodium phosphate were perfused into the penumbra for one hour, dialysate glutamate was elevated 315% as compared to control (±115%). […] The effects on glutamate were much more pronounced than on other amino acids measured; therefore, these studies provided further support for the involvement of extracellular glutaminase activity in producing the elevated levels of glutamate in cortical tissue undergoing ischemic damage.
The middle cerebral arteries of rats were occluded as in EXAMPLE 7, and the rats were returned to their cages overnight. The next morning, dialysis probes ([…], 2 mm length, 20,000 dalton cutoff) were inserted into ischemic penumbra (cortex) and perfused with artificial CSF at 3 μl/min for 1 h prior to collection of 10 minute fractions of dialysate. The effectiveness of the occlusion and the placement of probes were verified by TTC staining of 1 mm sections at the conclusion of the experiment. Amino acids in the dialysate were measured by reverse phase HPLC with fluorescence detection, after derivatization of the dialysates with o-phthaldialdehyde and N-acetyl-L-cysteine […]

[14] = 7 h hypoxia, 2 mM Gln + 30 uM pCMPS

Structure (SMILES): CCCCCCCC([N+](=O)[O-])[N+](=O)[O-] [1,1-dinitrooctane]
- neuroprotection (in words) [1]: neuroprotective in cultures of pure (intact) neurons
- lowering of LDH level ([1]; pure neuronal cultures): 30-40%
- lowering of glutamate level ([1]; pure neuronal cultures): 30-40%
- dependence of glutaminase inhibition on phosphate level and concentration (in words) [2]: inhibition was reduced in the presence of high phosphate levels; the effect was particularly evident; also recorded: A biphasic effect
- Glutaminase Activity ([2]; 30 µM): 96 ± 3
- Glutaminase Activity ([2]; 100 µM): 96 ± 4
- Glutaminase Activity ([2]; 300 µM): 51 ± 4 and 88 ± 17
- Glutaminase Activity ([2]; 3000 µM): 64 ± 43
- activity at 30 µM ([2]; read-out: Glutaminase Activity): 89 ± 6%
- activity at 100 µM ([2]; read-out: Glutaminase Activity): 77 ± 11%
- activity at 3000 µM ([2]; read-out: Glutaminase Activity): 79 ± 27%

Structure (SMILES): N[C@@H](CC(=O)CCl)C(=O)O [Chloroketone, L-2-amino-4-oxo-5-chloropentanoic acid]
- LDH release from neuronal cells (in words) [3]: resulted in release of lactate dehydrogenase from the cells, indicating cellular toxicity and death
- glutaminase inhibition (literature, in words) (glutaminase): only weak (mM) inhibitors

Structure (SMILES): [N-]=[N+]=CC(=O)CC[C@H](N)C(=O)O [DON, 6-diazo-5-oxo-L-norleucine]
- inhibition of glutamate production [4]: 90% and 50%
- inhibition of glutaminase activity in damaged cells (in words) [4]: inhibit glutaminase activity in damaged cells
- LDH release from neuronal cells (in words) [3]: resulted in release of lactate dehydrogenase from the cells, indicating cellular toxicity and death
- toxicity and tissue penetration after CNS administration (in words) [5]: toxicity and poor tissue penetration
- effect on hippocampal field potential (in words) [6]: decreased the magnitude and prolonged the duration of the field potential
- effect on glutaminase activity of intact/live neurons (in words) [7]: inhibition of glutaminase
- glutamate production after neuronal death [7]: 0.23 ± 0.03 μM Glu/min and 0.15 ± 0.02 μM Glu/min
- crossing of cell membranes (in words) [8]: readily cross cell membranes

Structure (SMILES): CN[C@H](CC(=O)O)C(=O)O [NMDA, N-methyl-D-aspartate]
- Glu [9]: 7.0 ± 0.6
- cytotoxicity at 500 µM [10]: 100%
- cytotoxicity at 500 µM [11]: ~85%

Structure (SMILES): N[C@H](C(=O)O)[C@@H]1CC(Cl)=NO1 [acivicin]
- effect on glutamine hydrolysis by damaged neurons (in words) [4]: no effect on glutamine hydrolysis
- glutaminase inhibition (literature, in words) (glutaminase): do not inhibit glutaminase
- crossing of cell membranes (in words) [8]: readily cross cell membranes

Structure (SMILES): [N-]=[N+]=CC(=O)OC[C@H](N)C(=O)O [azaserine]
- glutaminase inhibition (literature, in words) (glutaminase): do not inhibit glutaminase

Structure (SMILES): NNC(=O)CCC(N)C(=O)O (stereo not shown) [glutamate-γ-hydrazide]
- effect on glutamine hydrolysis by damaged neurons (in words) [4]: no effect on glutamine hydrolysis

Structure (SMILES): O=S(=O)(O)c1cc[c]([Hg][Cl])cc1 [pCMPS, p-(chloromercuri)phenyl sulfonic acid]
- concentration required to inhibit glutaminase [4]: 10 to 30 µM
- inhibition of glutamine hydrolysis by NMDA-damaged neurons (in words) ([4]; 30 μM): almost completely inhibited
- glutamate generation by NMDA-damaged neurons (in words) ([4]; 600 μM): completely abolished glutamate generation
- LDH release caused by glutamine exposure (in words) [1]: prevented the release of LDH
- medium glutamate [1]: 10.3 ± 4 μM Glu
- neuronal morphology (in words) [1]: neurons retained their normal appearance after 24 h
- neuroprotection (in words) [1]: protected pure neuronal cultures from neuronal damage caused by exposure to glutamine
- neuronal LDH release ([1]; mouse, pure neuronal cultures, 24 h, 30 µM): 17 ± 10.5
- LDH release from control cultures (in words) ([3]; 30 μM): did not cause LDH release from control cultures
- glial uptake of glutamate (in words) [12]: blocks glial uptake of glutamate
- effect on medium glutamate and release of LDH in hypoxic mixed cultures (in words) ([9]; 30 μM pCMPS, 2 mM glutamine, hypoxia 7h): lowered medium glutamate and release of LDH
- medium glutamate [9, 14]: 1.45 ± 1.0 μM Glu
- neuronal LDH release [9, 14]: 38.5 ± 8.1%
- effect on hippocampal field potential (in words) ([6]; 120 μM, 60 min perfusion): no effect on the field potential
- effect on glutaminase activity of intact/live neurons (in words) [7]: lack of effect

Structure (SMILES): O=P(O)(O)O [phosphate, sodium phosphate]
- increase of glutamate generation ([4]; mixed neuronal-glial cultures, 20000 µM): 8 fold
- dialysate glutamate, % of control [13]: 845 % of control
